Reference: paper PMC9241669, “Allantodapsone is a Pan-Inhibitor of Staphylococcus aureus Adhesion to Fibrinogen, Loricrin, and Cytokeratin 10” (Microbiology Spectrum, 2022)
Several values for one entry are separate records, joined by “and”; a condition that tells them apart may be missing. Equal entries are not always repeated.

Tests used:
L. lactis ClfB = experiment: Adhesion of L. lactis ClfB to immobilized fibrinogen; type: cell-based, Lactococcus lactis
Method: FIG 1 Allantodapsone inhibits S. aureus Newman adhesion to fibrinogen. Dose response curves for S. aureus Newman (A), L. lactis ClfA (B), and L. lactis ClfB (C) adhesion to fibrinogen. Fibrinogen was used to coat plates at 4°C overnight at 10 μg/mL. Wells were washed with PBS and blocked with 1% BSA. Washed bacteria (OD600 of 1) were mixed with the relevant concentration of allantodapsone or vehicle control (DMSO) for 5 min, and added to the wells, incubating for 2 h at 37°C. Adherent cells were washed, fixed, and stained with crystal violet, and wells further washed. The dye was dissolved in acetic acid and the absorbance measured at 570 nm. IC50 values were generated using GraphPad Prism 9.0 GraphPad software, San Diego, CA. Data are representative of three experiments with error presented as SEM.
Adhesion assays were carried out according to Hartford et al. ([37]). Briefly, plates were coated with 10 μg/mL fibrinogen (Calbiochem, Darmstadt, Germany) or 20 μg/mL fibronectin (Sigma-Aldrich, Ireland) for 2 h at 37°C or for 16 h at 4°C. Plates were blocked with 1% BSA at 37°C for 1 h and washed 3 times in PBS. Washed bacteria were incubated at 37°C for 2 h. […] Plates were read at 570 nm on a Wallac Victor2, (Shelton, CT, USA). The minimum adhesion inhibitory concentration (MAIC) was determined as the concentration inhibiting greater than 90% bacterial adhesion. […]

S. aureus SH1000 = experiment: Adhesion of S. aureus SH1000 to fibronectin; type: cell-based, Staphylococcus aureus; conditions: fibronectin 20 μg/mL, Fig. S2
Method: Adhesion assays were carried out according to Hartford et al. ([37]). Briefly, plates were coated with 10 μg/mL fibrinogen (Calbiochem, Darmstadt, Germany) or 20 μg/mL fibronectin (Sigma-Aldrich, Ireland) for 2 h at 37°C or for 16 h at 4°C. Plates were blocked with 1% BSA at 37°C for 1 h and washed 3 times in PBS. Washed bacteria were incubated at 37°C for 2 h. Adherent bacteria were washed three times in PBS and fixed in 5–9% formaldehyde at room temperature for 30 min. Wells were washed three times in PBS and stained using 5% crystal violet for 20 min. Wells were washed three times in PBS, and the crystal violet solubilized using 5% acetic acid. Plates were read at 570 nm on a Wallac Victor2, (Shelton, CT, USA). The minimum adhesion inhibitory concentration (MAIC) was determined as the concentration inhibiting greater than 90% bacterial adhesion. […]
fibronectin. Fibronectin was used to coat plates at 4 °C overnight at 20 μg/mL.
Wells were washed with PBS and blocked with 1% BSA. Washed bacteria (OD600 of 1) were added with the relevant concentration of allantodapsone or vehicle control, and incubated for 2 hours at 37 °C. Adherent cells were washed, fixed, stained with crystal violet and wells further washed. The dye was dissolved in acetic acid and the absorbance measured at 570 nm. […]

S. aureus Newman = experiment: Antimicrobial assay (bacterial growth in BHI broth); type: cell-based, Staphylococcus aureus; conditions: overnight in BHI broth, allantodapsone up to 100 μM, versus vehicle control
Method: S. aureus was grown in BHI broth shaking overnight at 37°C in the presence of a range of concentrations of allantodapsone, dapsone, or ampicillin as control. Absorbance was measured the following day at 570 nm. Data have been normalized to the relevant vehicle control (1% DMSO for allantodapsone and dapsone and water for ampicillin). […] Error bars represent SEM.
S. aureus was grown overnight in BHI broth at 37°C in shaking incubator. Wells were inoculated with 10 μL of overnight culture into 90 μL of broth containing the test compounds or controls. A growth control containing no agents was used (positive control), a sterility control of broth alone was included, and vehicle controls were included for each test compound. Plates were incubated overnight at 37°C and absorbance measured at 570 nm the following day using a Wallac Victor2, (Shelton, CT, USA).

recombinant ClfB N2N3 = recombinant ClfB N2N3 (Staphylococcus aureus, UniProt O86476); experiment: ELISA of recombinant ClfB N2N3 binding to immobilized GST-L2v loricrin; design: species or system S. aureus; conditions: allantodapsone 100 μM; ClfB 5 μM; P < 0.0001
Method: FIG 4 Allantodapsone inhibits S. aureus adhesion to loricrin and cytokeratin 10. Dose-response curve for adhesion of S. aureus Newman to GST-L2v loricrin (A) and CK10 (C). (B) Inhibition of recombinant ClfB N2N3 binding to immobilized GST-L2v loricrin by allantodapsone. (D) Inhibition of S. aureus Newman adhesion to GST-L2v loricrin by allantodapsone derivatives. Purified GST-L2v or CK10 were used to coat plates at 4°C overnight. Wells were washed with PBS and blocked with 1% BSA. Washed bacteria (OD600 of 1) were mixed with allantodapsone or vehicle control before being added to the wells and incubated for 2 h at 37°C. Adherent cells were washed, fixed, and stained with crystal violet, and wells further washed. The dye was dissolved in acetic acid, and the absorbance measured at 570 nm. GST-L2v was used at 20 μM in A and D. CK10 was used at 10 nM. […] Bound ClfB was detected using peroxidase-conjugated anti-His monoclonal antibody in an ELISA. […]
Recombinant GST-tagged L2v loricrin (120 nM) was coated onto a microtiter plate (Nunc Maxisorb) in sodium carbonate buffer (15 mM Na2CO3, 35 mM NaHCO3, pH 9.6) for 16 h at 4°C. […] Bound ClfB was detected with peroxidase-conjugated anti-His monoclonal antibody in 1% (wt/vol) skimmed milk proteins in PBS. […] The reaction was stopped by the addition of 2 M H2S0_4 (50 μL/well), and the A450 was measured in a plate reader (Labsystems).

Chain of recombinant ClfB N2N3 (O86476 201-542): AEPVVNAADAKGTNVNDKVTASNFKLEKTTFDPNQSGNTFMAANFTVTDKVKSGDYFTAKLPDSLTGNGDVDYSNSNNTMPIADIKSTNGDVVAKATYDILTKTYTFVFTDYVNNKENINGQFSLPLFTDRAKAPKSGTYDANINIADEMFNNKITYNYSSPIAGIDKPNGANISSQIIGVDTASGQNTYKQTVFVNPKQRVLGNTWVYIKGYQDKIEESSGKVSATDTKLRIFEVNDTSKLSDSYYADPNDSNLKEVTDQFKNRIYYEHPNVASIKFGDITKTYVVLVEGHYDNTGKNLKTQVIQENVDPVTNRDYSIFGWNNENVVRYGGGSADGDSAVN

## Nc1ccc(S(=O)(=O)c2ccc(NCN3C(=O)NC(=O)C(=O)C3=O)cc2)cc1 [Allantodapsone]
L. lactis ClfB; L. lactis ClfB, fibrinogen
  minimum adhesion inhibitory concentration (MAIC): 33 μM and 13.3 μg/mL
L. lactis ClfB; Lactococcus lactis, read-out: IC50, inhibition of adhesion to fibrinogen
  IC50: 11 µM
S. aureus SH1000
  inhibition of adhesion to fibronectin (words): does not inhibit
S. aureus SH1000; listed as allantodapsone
  inhibition of adhesion to fibronectin (words): did not inhibit
S. aureus Newman
  inhibition of bacterial growth (words): does not inhibit bacterial growth
S. aureus Newman; listed as allantodapsone
  inhibition of bacterial growth (words): no inhibition of bacterial growth
Recombinant ClfB N2N3
  inhibition of recombinant ClfB binding to L2v loricrin: inhibited
